From patent publication US9708336B2, “Metallo-beta-lactamase inhibitors” (priority 2014, dated 2017)
pIC50: −log10 of the molar value. Read-outs that look alike come from different tables or passages of the source.

Key:
NDM-1 = NDM-1 (Klebsiella pneumoniae, UniProt C7C422); assay: biochemical; type: biochemical; conditions: read-out: NDM-1 IC50
IMP-1 = IMP-1 (Serratia marcescens, UniProt P52699); assay: biochemical; type: biochemical; conditions: read-out: IMP-1 IC50
VIM-1 = VIM-1 (Pseudomonas aeruginosa (strain ATCC 15692 / DSM 22644 / CIP 104116 / JCM 14847 / LMG 12228 / 1C / PRS 101 / PAO1), UniProt A0A0F7KYQ8); assay: Enzyme activity: determination of IC50, fluorescence assay with CCF2-FA substrate (VIM-1); type: biochemical
[1] = test system: Escherichia coli expressing NDM-1 (CLB30005); assay: Antibiotic potentiation activity: synergistic concentration (MITC95) with imipenem, OD600 growth; type: cell-based; conditions: for Escherichia coli expressing NDM-1 (CLB 30005) MITC95: concentration giving 95% inhibition of bacterial growth; for Escherichia coli MITC95: Escherichia coli expressing NDM-1 (CLB30005), 95% growth inhibition
In short: (§1)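 Each strain, suspended in saline from overnight colonies and diluted 1:100 into 1.1× CAMHB, is dosed with imipenem at 4 μg/ml (or 1 μg/ml) plus compound, incubated 22–24 h at 35 °C and read by absorbance.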

[2] = test system: Klebsiella pneumoniae expressing VIM-1 (IHMA599644); assay: as above; type: cell-based; conditions: for Klebsiella pneumoniae expressing VIM-1 (IHMA 599644) MITC95: concentration giving 95% inhibition of bacterial growth; for Klebsiella pneumoniae MITC95: Klebsiella pneumoniae expressing VIM-1 (IHMA599644), 95% growth inhibition
In short: as §1

[3] = test system: Serratia marcescens expressing IMP-1 (CL5741); assay: as above; type: cell-based; conditions: for Serratia marcescens expressing IMP-1 (CL5741) MITC95: concentration giving 95% inhibition of bacterial growth; for Serratia marcescens MITC95: Serratia marcescens expressing IMP-1 (CL5741), 95% growth inhibition
In short: as §1

[4] = fluorescence assay with CCF2-FA substrate
[5] = VIM-1 IC50, fluorescence assay with CCF2-FA substrate
[6] = NDM-1 enzyme, CCF2-FA fluorescence assay
[7] = IMP-1 enzyme, CCF2-FA fluorescence assay
[8] = VIM-1 enzyme, CCF2-FA fluorescence assay, read-out: VIM-1 IC50
[9] = fluorescence assay with CCF2-FA substrate, read-out: VIM-1 IC50

Chain of NDM-1 (C7C422 whole entry, looked up, species assumed): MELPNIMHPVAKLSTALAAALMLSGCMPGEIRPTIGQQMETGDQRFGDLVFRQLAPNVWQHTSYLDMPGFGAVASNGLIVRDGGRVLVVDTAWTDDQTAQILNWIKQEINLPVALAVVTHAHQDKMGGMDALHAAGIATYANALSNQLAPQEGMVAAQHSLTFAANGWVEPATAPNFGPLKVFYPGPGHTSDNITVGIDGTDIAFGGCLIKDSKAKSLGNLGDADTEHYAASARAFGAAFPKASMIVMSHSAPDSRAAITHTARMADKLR
Chain of IMP-1 (P52699 whole entry, looked up): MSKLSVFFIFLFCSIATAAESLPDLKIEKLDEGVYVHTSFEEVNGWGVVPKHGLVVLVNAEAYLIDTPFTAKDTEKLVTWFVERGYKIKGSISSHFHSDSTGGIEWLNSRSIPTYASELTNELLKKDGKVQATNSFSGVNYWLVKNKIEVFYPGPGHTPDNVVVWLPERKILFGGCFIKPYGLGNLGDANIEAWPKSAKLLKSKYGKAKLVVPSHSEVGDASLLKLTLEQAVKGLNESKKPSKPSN

| Structure (SMILES) | pIC50 (NDM-1; [4]) | pIC50 (IMP-1; [4]) | pIC50 (VIM-1; [5]) | Escherichia coli expressing NDM-1 (CLB 30005) MITC95 [1] | Klebsiella pneumoniae expressing VIM-1 (IHMA 599644) MITC95 [2] | Serratia marcescens expressing IMP-1 (CL5741) MITC95 [3] | pIC50 (NDM-1; [6]) | pIC50 (IMP-1; [7]) | pIC50 (VIM-1; [8]) | Escherichia coli MITC95 [1] | Klebsiella pneumoniae MITC95 [2] | Serratia marcescens MITC95 [3] | pIC50 (VIM-1; [9]) | pIC50 (VIM-1; VIM-1 IC50, VIM-1 enzyme, CCF2-FA fluorescence assay) |
| --- | --- | --- | --- | --- | --- | --- | --- | --- | --- | --- | --- | --- | --- | --- |
| NS(=O)(=O)c1nccc(-c2ccc(C(=O)O)cc2)c1-c1nnn[nH]1 [Example 183, 4-(2-Sulfamoyl-3-(1H-tetrazol-5-yl)pyridin-4-yl)benzoic acid] | 7.94 | 6.47 | 6.76 | 4.688 µM | 75 µM | 50 µM | – | – | – | – | – | – | – | – |
| Cc1ccccc1-c1cccc(S(N)(=O)=O)c1-c1nn[nH]n1 [Example 325, 2′-methyl-2-(2H-tetrazol-5-yl)-[1,1′-biphenyl]-3-sulfonamide] | – | – | – | – | – | – | 8.89 | 6.64 | 7.88 | 3.125 µM | 37.5 µM | 25 µM | – | – |
| NS(=O)(=O)c1cccc(-c2cccc(-n3nccn3)c2)c1-c1nn[nH]n1 [Example 70, 2-(2H-tetrazol-5-yl)-3′-(2H-1,2,3-triazol-2-yl)biphenyl-3-sulfonamide] | 8.70 | 6.98 | – | 1.563 µM | 150 µM | 18.75 µM | – | – | – | – | – | – | 7.54 | – |
| CNC(=O)c1ccc(-c2cccc(S(N)(=O)=O)c2-c2nn[nH]n2)cc1 [Example 13, N-methyl-3′-sulfamoyl-2′-(2H-tetrazol-5-yl)biphenyl-4-carboxamide] | 8.26 | 6.76 | – | 1.563 µM | 200 µM | 200 µM | – | – | – | – | – | – | 6.65 | – |
| NS(=O)(=O)c1cccc(-c2ccc(-c3ccn[nH]3)cc2)c1-c1nn[nH]n1 [Example 50, 4′-(1H-pyrazol-5-yl)-2-(2H-tetrazol-5-yl)biphenyl-3-sulfonamide] | 8.57 | 7.42 | – | 2.344 µM | 200 µM | 12.5 µM | – | – | – | – | – | – | 7.05 | – |
| COc1cccc(S(N)(=O)=O)c1-c1nnn[nH]1 [Example 257, 3-Methoxy-2-(1H-tetrazol-5-yl)benzenesulfonamide] | – | – | – | – | – | – | 6.26 | 5.08 | 5.03 | 1.563 µM | >200 µM | 150 µM | – | – |
| COc1cncc(-c2cccc(S(N)(=O)=O)c2-c2nn[nH]n2)n1 [Example 40, 3-(6-methoxypyrazin-2-yl)-2-(2H-tetrazol-5-yl)benzenesulfonamide] | 7.37 | 5.52 | – | 3.125 µM | 200 µM | 200 µM | – | – | – | – | – | – | 6.25 | – |
| CN(c1ncc(-c2cccc(S(N)(=O)=O)c2-c2nn[nH]n2)cn1)S(C)(=O)=O [Example 55, 3-{2-[methyl(methylsulfonyl)amino]pyrimidin-5-yl}-2-(2H-tetrazol-5-yl)benzenesulfonamide] | 8.46 | 7.28 | – | 1.953 µM | 200 µM | 12.5 µM | – | – | – | – | – | – | 6.84 | – |
| NCCCc1ccc(-c2cccc(S(N)(=O)=O)c2-c2nnn[nH]2)cc1 [Example 305, 4′-(3-aminopropyl)-2-(1H-tetrazol-5-yl)-[1,1′-biphenyl]-3-sulfonamide] | – | – | – | – | – | – | 7.30 | 6.48 | – | 1.953 µM | 18.75 µM | 4.688 µM | – | 6.99 |
| NS(=O)(=O)c1cccc(C#CCN2CCS(=O)(=O)CC2)c1-c1nn[nH]n1 [Example 148, 3-[3-(1,1-dioxidothiomorpholin-4-yl)prop-1-yn-1-yl]-2-(2H-tetrazol-5-yl)benzenesulfonamide] | 6.88 | 6.26 | – | 6.25 µM | >200 µM | 50 µM | – | – | – | – | – | – | 5.51 | – |
| NS(=O)(=O)c1cccc(-c2ccc(C(O)C(F)F)cc2)c1-c1nnn[nH]1 (stereo not drawn) [Example 24, 4′-(2,2-difluoro-1-hydroxyethyl)-2-(1H-tetrazol-5-yl)biphenyl-3-sulfonamide] | 8.44 | 7.75 | – | 1.563 µM | 150 µM | 3.125 µM | – | – | – | – | – | – | 6.91 | – |
| NS(=O)(=O)c1cccc(-c2ccc(O)nc2)c1-c1nn[nH]n1 [Example 80, 3-(6-hydroxypyridin-3-yl)-2-(2H-tetrazol-5-yl)benzenesulfonamide] | 7.09 | 5.62 | 6.27 | 0.3906 µM | 25 µM | 50 µM | – | – | – | – | – | – | – | – |
| CS(=O)(=O)c1ccc(-c2cccc(S(N)(=O)=O)c2-c2nn[nH]n2)cc1 [Example 16, 4′-(methylsulfonyl)-2-(2H-tetrazol-5-yl)biphenyl-3-sulfonamide] | 7.98 | 7.07 | 7.17 | 1.172 µM | 75 µM | 25 µM | – | – | – | – | – | – | – | – |
| NS(=O)(=O)c1cccc(-c2ccc(C(=O)NC3CC3)cc2)c1-c1nn[nH]n1 [Example 11, N-cyclopropyl-3′-sulfamoyl-2′-(2H-tetrazol-5-yl)biphenyl-4-carboxamide] | 8.19 | 6.96 | 6.33 | 1.563 µM | >200 µM | 12.5 µM | – | – | – | – | – | – | – | – |
| CN1CCC=C(c2cccc(S(N)(=O)=O)c2-c2nn[nH]n2)C1 [Example 65, 3-(1-methyl-1,2,5,6-tetrahydropyridin-3-yl)-2-(2H-tetrazol-5-yl)benzenesulfonamide] | 6.04 | 4.70 | – | 4.688 µM | >200 µM | >200 µM | – | – | – | – | – | – | 5.30 | – |
| CCCc1ccc(-c2cccc(S(N)(=O)=O)c2-c2nnn[nH]2)cn1 [Example 302, 3-(6-propylpyridin-3-yl)-2-(1H-tetrazol-5-yl)benzenesulfonamide] | – | – | – | – | – | – | 8.23 | 6.96 | 7.41 | 0.3906 µM | 150 µM | 3.906 µM | – | – |
| NS(=O)(=O)c1cccc(-c2cnn3c2CCCC3)c1-c1nn[nH]n1 [Example 107, 3-(4,5,6,7-tetrahydropyrazolo[1,5-a]pyridin-3-yl)-2-(2H-tetrazol-5-yl)benzenesulfonamide] | 8.00 | 6.44 | – | 3.906 µM | 200 µM | 15.63 µM | – | – | – | – | – | – | 6.71 | – |
